According to US20180133221A1, “ADMINISTRATION OF UBIQUITIN-ACTIVATING ENZYME INHIBITOR AND CHEMOTHERAPEUTIC AGENTS” (Millennium Pharmaceuticals, Inc., priority 2014, published 2018):

How the values were obtained:
[1] = system: SKOV-3 ovarian cell-line derived xenograft; experiment: SKOV-3 xenograft model, Compound 1 and carboplatin; type: in vivo, nude mice; details: for Tumor Volume Day 14: in mm³ (unit assumed)
Description: SKOV-3 is an ovarian cell-line derived xenograft. Ten week old female nude mice (Taconic Farms, Inc) were inoculated subcutaneously in flank (cell suspension) with 4.0×10^6 SKOV-3 cells suspended in serum free DMEM+Matrigel. When the mean tumor volume reached approximately 200 mm^3, the animals were randomized into 12 treatment groups (n=5/group).
Carboplatin (Teva Pharmaceuticals) is formulated in 0.9% saline and administered by IP injection once weekly (QW) at 25, 50, 60, and 75 mg/kg. The once weekly schedule is also described as every 7 days (Q7D).
Compound 1 [((1R,2R,3S,4R)-2,3-dihydroxy-4-(2-(3-(trifluoromethylthio)-phenyl)pyrazolo[1,5-a]pyrimidin-7-ylamino)cyclopentyl)methyl sulfamate] is formulated in 10-20% HPbCD in sterile water and administered intravenously (IV) or subcutaneously (SC) on a BIW (twice/week schedule; Monday and Thursday or Tuesday and Friday) for either 2-4 weeks.
Tumors were measured twice weekly using vernier calipers. Tumor volumes were calculated using the standard formula V=W^2×L/2,). When mean tumor volumes reached approximately 200 mm^3 for PHTX-24C, 220 mm^3 for PHTX-Lu132, 150 mm^3 for CTG-0256, 260 mm^3 for CTG-0486, 185 mm^3 for PHTX-17C, 260 mm^3 for CTG-0165, 150 mm^3 for PHTX-14B in the study of Compound 1 and paclitaxel, 180 mm^3 for PHTX-14B in the study of Compound 1 and docetaxel, 200 mm^3 for SKOV-3, 220 mm^3 for PHTX-02B in the study of Compound 1 and docetaxel, 250 mm^3 for PHTX-02B in the study of Compound 1 and paclitaxel, 195 mm^3 for CTG-0159, 180 mm^3 for CTG-0012 or 150 mm^3 for Calu-6, mice were randomized into groups of n=5-7/arm as described in the tables below, and injected with vehicle, Compound 1 or agents (docetaxel, paclitaxel, oxaliplatin, cisplatin or carboplatin), or the combination of Compound 1 plus one of the agents, at various doses and schedules as described in tables below. Tumor size and body weight were measured approximately twice a week for the duration of the study. Mice are euthanized when their tumor volume reached 10% of their body weight, or when the average tumor volume of a treatment or control group reached approximately 2000 mm^3. Tumor growth continued to be monitored after the dosing period in some studies. Average tumor volume is reported as a function of time for selected arms of selected studies in the Figures.
Measurements from day 0 to day 14, day 19, day 21, or day 28 are analyzed as specified in Tables below. All tumor volumes have a value of 1 added to them before log10 transformation. For each animal, the log tumor volume at day 0 is subtracted from the log tumor volume on the subsequent days. This difference vs. time is used to calculate an area under the curve (AUC) for each animal using the trapezoid rule. […] The synergy score for the combination of agents A and B is defined as
100*(mean(AUCAB)−mean(AUCA)−mean(AUCB)+mean(AUCctl))/mean(AUCctl):
where AUCAB, AUCA, AUCB, and AUCctl are the AUC values for animals in the combination group, the A group, the B group, and the control group, respectively. The standard error of the synergy score is computed based on the variation in the AUC values among the animals. […] If the P-value is above 0.05, then the combination is considered to be additive. If the P-value is below 0.05, and the synergy score is less than zero, then the combination is considered to be synergistic.

[2] = system: PHTX-02B breast xenograft; experiment: PHTX-02B xenograft model, Compound 1 and paclitaxel; type: in vivo, SCID-NOD mice
Description: Paclitaxel (Bristol-Myers Squibb Company) is formulated in 0.9% saline and administered by intravenous injection (IV) on every 4 days (Q4D) or once weekly (QW) at 10 and 20 mg/kg. […] Tumors were measured twice weekly using vernier calipers.

[3] = system: PHTX-02B breast xenograft; experiment: PHTX-02B xenograft model, Compound 1 and docetaxel; type: in vivo, SCID-NOD mice; details: for Tumor Volume Day 21: in mm³ (unit assumed)
Description: Docetaxel (Henry Schein, Inc., Pittsburgh Pa.) is formulated in 0.9% saline and administered by intravenous injection (IV) once weekly (QW) at 5 mg/kg or 10 mg/kg. […] Tumors were measured twice weekly using vernier calipers.

SMILES: NS(=O)(=O)OC[C@H]1C[C@@H](Nc2ccnc3cc(-c4cccc(SC(F)(F)F)c4)nn23)[C@H](O)[C@@H]1O [Compound 1, ((1R,2R,3S,4R)-2,3-dihydroxy-4-(2-(3-(trifluoromethylthio)phenyl)pyrazolo[1,5-a]pyrimidin-7-ylamino)cyclopentyl)methyl sulfamate]
- Tumor Volume Day 14 ([1]; 5 mg/kg Compound 1 BIWx2 IV): 857.2
- Tumor Volume Day 14 ([1]; 10 mg/kg Compound 1 BIWx2 IV): 883
- Tumor Volume Day 14 ([1]; 15 mg/kg Compound 1 BIWx2 IV): 919.2
- anti-tumor activity compared to vehicle control ([1]; single agent Compound 1 IV at 5, 10 and 15 mg/kg BIW): modest anti-tumor activity
- Tumor Volume Day 19 ([2]; 6.25 mg/kg Compound 1 BIWx3 IV, in mm³ (unit assumed)): 1850.4
- anti-tumor activity compared to vehicle control ([2]; single agent Compound 1 IV at 6.25, and 12.5 mg/kg BIW for 3 weeks): minimal to modest anti-tumor activity
- Tumor Volume Day 21 ([3]; 7.5 mg/kg Compound 1 BIWx3 SC): 596.5
- Tumor Volume Day 21 ([3]; 15 mg/kg Compound 1 BIWx3 SC): 324.8
- Tumor Volume Day 21 ([3]; 20 mg/kg Compound 1 BIWx3 IV): 178.8
- Tumor Volume Day 21 ([3]; 20 mg/kg Compound 1 BIWx3 SC): 185
- tumor growth compared to the vehicle control group ([3]; single agent Compound 1 SC at 7.5, 15 and 20 mg/kg BIW, IV also 20 mg/kg BIW): inhibited tumor growth
